Assay results published in PubChem BioAssay AID1845209 (Molecular Pharmacology Branch, DTP, NCI, 2023).
pIC50: −log10 of the molar value.

System: NCI-H211 tumor spheroids, viability percent test/control
Experiment: Anticancer human tumor NCI-H211 cell line growth inhibition;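 further: spheroids exposed to agents for seven days before readout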
Settings: spheroids with HUVEC and MSC; for pIC50: curve of first compound; for viability, T/C: stronger effect = lower value
Source text: Multicellular complex tumor spheroid response to DNA repair inhibitors in combination with DNA-damaging drugs
This study explores the anticancer activities of DNA-damaging drugs and inhibitors of DNA damage repair, both as single agents and in combinations. Complex tumor spheroids comprised of malignant cells, endothelial cells and mesenchymal stem cells served as an in vitro model for human solid tumors. This model system incorporates physiologically relevant features and patient-derived or established malignant cell lines with clinically relevant genetic alterations from many tumor types. Twenty-six patient-derived or established malignant cell lines were evaluated representing sarcoma, melanoma, small cell lung cancer (SCLC), non-small cell lung cancer (NSCLC), as well as bladder, ovarian and pancreatic cancers. The concentration ranges selected for each drug and investigational agent were based upon clinically achievable concentrations if the clinical Cmax of the agent was known.
Compounds. The drugs and compounds olaparib (NSC753686), talazoparib (NSC767125), berzosertib (NSC777718), elimusertib (NSC800525), nedisertib (NSC802822), VX-984 (NSC792969), AZD-1390 (NSC803789), temozolomide (NSC362856), topotecan (NSC609699), trabectedin (NSC813783), staurosporine (NSC755774), and gemcitabine (NSC613327) were obtained from the National Cancer Institute (NCI) Developmental Therapeutics Program Chemical Repository. The FDA-approved anticancer drug set is available from the Developmental Therapeutics Program at https://dtp.cancer.gov/organization/dscb/obtaining/available_plates.htm. […] The stock solutions were prepared in dimethyl sulfoxide (DMSO, Sigma-Aldrich, St. Louis, MO, cat. D2650) at 400-fold the tested concentration and stored at -70 degrees C. Prior to their use, the stock solutions were diluted in fresh medium and the final DMSO concentration in the assay was 0.25% (v/v). All drugs and investigational agents were tested over a range starting from a high concentration at or near the clinical Cmax and decreasing in half-log increments. If the clinical Cmax for an agent had not been determined, the highest concentration tested was 10 microM.
Cell Lines. The patient-derived cancer cell (PDC) lines: 156681-154-R-J1-PDC, 283228-195-R-J1-PDC, 287954-098-R-J1-PDC, 292921-168-R-J2-PDC, 349418-098-R-PDC, 425362-245-T-J1-PDC, 556581-035-R-J1-PDC, and BL0293-F563-PDC were received from the NCI Patient-Derived Models Repository (PDMR, https://pdmr.cancer.gov). The established cell lines HS-SY-2 (RRID:CVCL_8719), MPNST, and SYO-1 (RRID:CVCL_7146) were obtained from the Sloan Kettering Institute. The alveolar soft parts sarcoma cell line ASPS-1 (RRID:CVCL_S738) was established at the NCI and grown from internal seed stocks. The following established cell lines were purchased from the American Type Culture Collection (ATCC, Manassas, VA): G-401 (ATCC, cat. CRL-1441, RRID:CVCL_0270), SW982 (ATCC, cat. HTB-93, RRID:CVCL_1734), VA-ES-BJ (ATCC, cat. CRL-2138, RRID:CVCL_1785), NCI-H719 (ATCC, cat. CRL-5837, RRID:CVCL_1582), NCI-H196 (ATCC, cat. CRL-5823, RRID:CVCL_1509), NCI-H841 (ATCC, cat. CRL-5845, RRID:CVCL_1595), NCI-H1618 (ATCC, cat. CRL-5879, RRID:CVCL_1480), NCI-H1876 (ATCC, cat. CRL-5902, RRID:CVCL_1503), DMS 114 (ATCC, cat. CRL-2066; RRID:CVCL_1174), NCI-H211 (ATCC, cat. CRL-5824; RRID:CVCL_1529), and SW 1271 (ATCC, cat. CRL-2177, RRID:CVCL_1716). The small cell lung cancer cell line COR-L88 was purchased from Sigma-Aldrich (cat. 92031917-1VL, RRID:CVCL_1141). The non-small cell lung cancer cell lines NCI-H226 (RRID:CVCL_1544) and NCI-H322M (RRID:CVCL_1557) were established at the NCI and grown from internal seed stocks. Pooled donor human umbilical vein endothelial cells (HUVEC, Lonza, cat. CC-2519) and human mesenchymal stem cells (hMSC, Lonza, cat. PT-2501) were purchased from Lonza (Walkersville, MD).
Cell Culture. All cells were maintained in an incubator at 37 degrees C and 5% CO2 with 95% humidity. […]

SMILES: Cn1ncnc1[C@H]1c2n[nH]c(=O)c3cc(F)cc(c23)N[C@@H]1c1ccc(F)cc1 + CC[C@@]1(O)C(=O)OCc2c1cc1n(c2=O)Cc2cc3c(CN(C)C)c(O)ccc3nc2-1
- pIC50 (second compound 0.003 µM): > 8.02
- pIC50 (second compound 0.00949 µM): > 8.02
- pIC50 (second compound 0.03 µM): > 8.02
- pIC50 (second compound 0.0949 µM): > 8.02
- pIC50 (second compound 0.3 µM): > 8.02
- viability, T/C (second compound 0.003 µM, first compound 0.00949 µM): 1.01%
- viability, T/C (second compound 0.003 µM, first compound 0.03 µM): 1.19%
- viability, T/C (second compound 0.003 µM, first compound 0.0949 µM): 1.05%
- viability, T/C (second compound 0.003 µM, first compound 0.3 µM): 1.13%
- viability, T/C (second compound 0.003 µM, first compound 0.949 µM): 1.18%
- viability, T/C (second compound 0.003 µM, first compound 3 µM): 1.13%
- viability, T/C (second compound 0.00949 µM, first compound 0.00949 µM): 1.17%
- viability, T/C (second compound 0.00949 µM, first compound 0.03 µM): 1.18%
- viability, T/C (second compound 0.00949 µM, first compound 0.0949 µM): 1.24%
- viability, T/C (second compound 0.00949 µM, first compound 0.3 µM): 1.21%
- viability, T/C (second compound 0.00949 µM, first compound 0.949 µM): 1.11%
- viability, T/C (second compound 0.00949 µM, first compound 3 µM): 1.49%
- viability, T/C (second compound 0.03 µM, first compound 0.00949 µM): 0.91%
- viability, T/C (second compound 0.03 µM, first compound 0.03 µM): 1.11%
- viability, T/C (second compound 0.03 µM, first compound 0.0949 µM): 1.25%
- viability, T/C (second compound 0.03 µM, first compound 0.3 µM): 1.13%
- viability, T/C (second compound 0.03 µM, first compound 0.949 µM): 1.14%
- viability, T/C (second compound 0.03 µM, first compound 3 µM): 1.06%
- viability, T/C (second compound 0.0949 µM, first compound 0.00949 µM): 1.14%
- viability, T/C (second compound 0.0949 µM, first compound 0.03 µM): 1.25%
- viability, T/C (second compound 0.0949 µM, first compound 0.0949 µM): 1.17%
- viability, T/C (second compound 0.0949 µM, first compound 0.3 µM): 1.17%
- viability, T/C (second compound 0.0949 µM, first compound 0.949 µM): 1.1%
- viability, T/C (second compound 0.0949 µM, first compound 3 µM): 1.34%
- viability, T/C (second compound 0.3 µM, first compound 0.00949 µM): 1.06%
- viability, T/C (second compound 0.3 µM, first compound 0.03 µM): 1.01%
- viability, T/C (second compound 0.3 µM, first compound 0.0949 µM): 1.1%
- viability, T/C (second compound 0.3 µM, first compound 0.3 µM): 1.37%
- viability, T/C (second compound 0.3 µM, first compound 0.949 µM): 1.05%
- viability, T/C (second compound 0.3 µM, first compound 3 µM): 1.06%

SMILES: CC(C)n1c(=O)n(C)c2cnc3cc(F)c(-c4ccc(OCCCN5CCCCC5)nc4)cc3c21 + CC[C@@]1(O)C(=O)OCc2c1cc1n(c2=O)Cc2cc3c(CN(C)C)c(O)ccc3nc2-1
- pIC50 (second compound 0.003 µM): > 7.50
- pIC50 (second compound 0.00949 µM): > 7.50
- pIC50 (second compound 0.03 µM): > 7.50
- pIC50 (second compound 0.0949 µM): > 7.50
- pIC50 (second compound 0.3 µM): > 7.50
- viability, T/C (second compound 0.003 µM, first compound 0.0316 µM): 19.9%
- viability, T/C (second compound 0.003 µM, first compound 0.1 µM): 22%
- viability, T/C (second compound 0.003 µM, first compound 0.316 µM): 20%
- viability, T/C (second compound 0.003 µM, first compound 1 µM): 18.8%
- viability, T/C (second compound 0.003 µM, first compound 3.16 µM): 10.9%
- viability, T/C (second compound 0.003 µM, first compound 10 µM): 2.91%
- viability, T/C (second compound 0.00949 µM, first compound 0.0316 µM): 0.98%
- viability, T/C (second compound 0.00949 µM, first compound 0.1 µM): 0.97%
- viability, T/C (second compound 0.00949 µM, first compound 0.316 µM): 1.23%
- viability, T/C (second compound 0.00949 µM, first compound 1 µM): 1.31%
- viability, T/C (second compound 0.00949 µM, first compound 3.16 µM): 1.09%
- viability, T/C (second compound 0.00949 µM, first compound 10 µM): 0.52%
- viability, T/C (second compound 0.03 µM, first compound 0.0316 µM): 1.27%
- viability, T/C (second compound 0.03 µM, first compound 0.1 µM): 0.81%
- viability, T/C (second compound 0.03 µM, first compound 0.316 µM): 0.82%
- viability, T/C (second compound 0.03 µM, first compound 1 µM): 0.85%
- viability, T/C (second compound 0.03 µM, first compound 3.16 µM): 0.81%
- viability, T/C (second compound 0.03 µM, first compound 10 µM): 0.5%
- viability, T/C (second compound 0.0949 µM, first compound 0.0316 µM): 0.98%
- viability, T/C (second compound 0.0949 µM, first compound 0.1 µM): 1.01%
- viability, T/C (second compound 0.0949 µM, first compound 0.316 µM): 0.97%
- viability, T/C (second compound 0.0949 µM, first compound 1 µM): 0.94%
- viability, T/C (second compound 0.0949 µM, first compound 3.16 µM): 1%
- viability, T/C (second compound 0.0949 µM, first compound 10 µM): 0.57%
- viability, T/C (second compound 0.3 µM, first compound 0.0316 µM): 1.06%
- viability, T/C (second compound 0.3 µM, first compound 0.1 µM): 0.95%
- viability, T/C (second compound 0.3 µM, first compound 0.316 µM): 0.85%
- viability, T/C (second compound 0.3 µM, first compound 1 µM): 1.2%
- viability, T/C (second compound 0.3 µM, first compound 3.16 µM): 1.02%
- viability, T/C (second compound 0.3 µM, first compound 10 µM): 0.73%
